# ChEMBL document CHEMBL1201862, “PubChem BioAssay data set” (2004)
#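 The compound was tested at five concentrations on cells cultured in 96-well plates, with a 48-hour exposure period. Here, GI50 denotes the concentration required for 50% inhibition of growth.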 Active and inactive are the calls of the source. Cut-off read from the data, not from the text of the source: active = GI50 up to about 1.1 µM and inactive = higher.
# Experiments:
# Experiment in all cases: inhibition of tumour cell growth, NCI panel, 48 h
# HL-60 = test system: HL-60
# SK-OV-3 = test system: SK-OV-3
# OVCAR-3 = test system: OVCAR-3
# HT-29 = test system: HT-29
# OVCAR-5 = test system: OVCAR-5
# COLO 205 = test system: COLO 205
# UACC-257 = test system: UACC-257
# UO-31 = test system: UO-31
# LOX IMVI = test system: LOX IMVI
# NCI-H23 = test system: NCI-H23
# HCT-15 = test system: HCT-15
# SF-268 = test system: SF-268
# RXF 393 = test system: RXF 393
# HOP-92 = test system: HOP-92
# A498 = test system: A498
# MCF7 = test system: MCF7
# SNB-19 = test system: SNB-19
# T47D = test system: T47D
# MDA-MB-435 = test system: MDA-MB-435
# MDA-N = test system: MDA-N
# M14 = test system: M14
# U-251 = test system: U-251
# Hs-578T = test system: Hs-578T
# RPMI-8226 = test system: RPMI-8226
# CCRF-CEM = test system: CCRF-CEM
# MDA-MB-231 = test system: MDA-MB-231
# NCI-H460 = test system: NCI-H460
# NCI/ADR-RES = test system: NCI/ADR-RES
# MOLT-4 = test system: MOLT-4
# BT-549 = test system: BT-549
# DU-145 = test system: DU-145
# SF-295 = test system: SF-295
# ACHN = test system: ACHN
# PC-3 = test system: PC-3
# Malme-3M = test system: Malme-3M
# NCI-H226 = test system: NCI-H226
# SW-620 = test system: SW-620
# UACC-62 = test system: UACC-62
# SR = test system: SR
# SF-539 = test system: SF-539
# OVCAR-8 = test system: OVCAR-8
# SNB-75 = test system: SNB-75
# CAKI-1 = test system: CAKI-1
# TK-10 = test system: TK-10
# HCT-116 = test system: HCT-116
# K562 = test system: K562
# IGROV-1 = test system: IGROV-1
# A549 = test system: A549
# SN12C = test system: SN12C
# SK-MEL-5 = test system: SK-MEL-5
# EKVX = test system: EKVX
# HCC 2998 = test system: HCC 2998
# 786-0 = test system: 786-0
# KM12 = test system: KM12
# HOP-62 = test system: HOP-62
# SK-MEL-2 = test system: SK-MEL-2
# SK-MEL-28 = test system: SK-MEL-28
# OVCAR-4 = test system: OVCAR-4
# NCI-H522 = test system: NCI-H522
structure (smiles),measurement,setting,value
c1ccc(-c2c(-c3cccs3)[nH]c(-c3cccs3)c2-c2ccccn2)nc1,GI50,HL-60,26.5 µM (inactive)
same,GI50,SK-OV-3,21.9 µM (inactive)
same,GI50,OVCAR-3,24 µM (inactive)
same,GI50,HT-29,14.2 µM (inactive)
same,GI50,OVCAR-5,30.5 µM (inactive)
same,GI50,COLO 205,15 µM (inactive)
same,GI50,UACC-257,22 µM (inactive)
same,GI50,UO-31,19.2 µM (inactive)
same,GI50,LOX IMVI,12.4 µM (inactive)
same,GI50,NCI-H23,26.2 µM (inactive)
same,GI50,HCT-15,15.1 µM
same,GI50,SF-268,19.7 µM (inactive)
same,GI50,RXF 393,20.5 µM (inactive)
same,GI50,HOP-92,25.8 µM (inactive)
same,GI50,A498,27.5 µM (inactive)
same,GI50,MCF7,> 10 µM (inactive)
same,GI50,SNB-19,33.5 µM (inactive)
same,GI50,T47D,18.2 µM (inactive)
same,GI50,MDA-MB-435,15.7 µM (inactive)
same,GI50,MDA-N,0.199 µM (active)
same,GI50,M14,20.2 µM (inactive)
same,GI50,U-251,20.2 µM (inactive)
same,GI50,Hs-578T,33.4 µM (inactive)
same,GI50,RPMI-8226,20 µM (inactive)
same,GI50,CCRF-CEM,8.24 µM (inactive)
same,GI50,MDA-MB-231,20.3 µM (inactive)
same,GI50,NCI-H460,21.3 µM (inactive)
same,GI50,NCI/ADR-RES,17.2 µM (inactive)
same,GI50,MOLT-4,11.7 µM (inactive)
same,GI50,BT-549,22.2 µM (inactive)
same,GI50,DU-145,0.27 µM (active)
same,GI50,SF-295,20.2 µM (inactive)
same,GI50,ACHN,30.5 µM (inactive)
same,GI50,PC-3,10.6 µM (inactive)
same,GI50,Malme-3M,25.5 µM (inactive)
same,GI50,NCI-H226,23 µM (inactive)
same,GI50,SW-620,13 µM (inactive)
same,GI50,UACC-62,18 µM (inactive)
same,GI50,SR,26.2 µM (inactive)
same,GI50,SF-539,20.4 µM (inactive)
same,GI50,OVCAR-8,26.4 µM (inactive)
same,GI50,SNB-75,17.6 µM (inactive)
same,GI50,CAKI-1,37.4 µM (inactive)
same,GI50,TK-10,40.2 µM (inactive)
same,GI50,HCT-116,0.127 µM (active)
same,GI50,K562,11.7 µM (inactive)
same,GI50,IGROV-1,22.5 µM (inactive)
same,GI50,A549,18.1 µM (inactive)
same,GI50,SN12C,21.1 µM (inactive)
same,GI50,SK-MEL-5,13.7 µM (inactive)
same,GI50,EKVX,22.9 µM (inactive)
same,GI50,HCC 2998,20.2 µM (inactive)
same,GI50,786-0,22.6 µM (inactive)
same,GI50,KM12,23.1 µM (inactive)
N/C(=N\Nc1ccc(S(N)(=O)=O)cc1)c1cnccn1,GI50,HL-60,> 100 µM (inactive)
same,GI50,SK-OV-3,> 100 µM (inactive)
same,GI50,OVCAR-3,> 100 µM (inactive)
same,GI50,HT-29,> 100 µM (inactive)
same,GI50,OVCAR-5,> 100 µM (inactive)
same,GI50,COLO 205,> 100 µM (inactive)
same,GI50,UACC-257,> 100 µM (inactive)
same,GI50,HOP-62,> 100 µM (inactive)
same,GI50,UO-31,> 100 µM (inactive)
same,GI50,LOX IMVI,> 100 µM (inactive)
same,GI50,NCI-H23,> 100 µM (inactive)
same,GI50,HCT-15,> 100 µM
same,GI50,SF-268,> 100 µM (inactive)
same,GI50,RXF 393,> 100 µM (inactive)
same,GI50,HOP-92,> 100 µM (inactive)
same,GI50,A498,> 100 µM (inactive)
same,GI50,SK-MEL-2,> 100 µM (inactive)
same,GI50,MCF7,> 100 µM (inactive)
same,GI50,SNB-19,> 100 µM (inactive)
same,GI50,T47D,> 100 µM (inactive)
same,GI50,MDA-MB-435,> 100 µM (inactive)
same,GI50,MDA-N,> 100 µM (inactive)
same,GI50,M14,> 100 µM (inactive)
same,GI50,U-251,> 100 µM (inactive)
same,GI50,SK-MEL-28,> 100 µM (inactive)
same,GI50,Hs-578T,> 100 µM (inactive)
same,GI50,RPMI-8226,> 100 µM (inactive)
same,GI50,CCRF-CEM,> 100 µM (inactive)
same,GI50,MDA-MB-231,> 100 µM (inactive)
same,GI50,NCI-H460,> 100 µM (inactive)
same,GI50,NCI/ADR-RES,> 100 µM (inactive)
same,GI50,MOLT-4,> 100 µM (inactive)
same,GI50,BT-549,> 100 µM (inactive)
same,GI50,DU-145,> 100 µM (inactive)
same,GI50,SF-295,> 100 µM (inactive)
same,GI50,ACHN,> 100 µM (inactive)
same,GI50,PC-3,> 100 µM (inactive)
same,GI50,OVCAR-4,> 100 µM (inactive)
same,GI50,Malme-3M,> 100 µM (inactive)
same,GI50,NCI-H226,> 100 µM (inactive)
same,GI50,SW-620,> 100 µM (inactive)
same,GI50,UACC-62,> 100 µM (inactive)
same,GI50,SR,> 100 µM (inactive)
same,GI50,OVCAR-8,> 100 µM (inactive)
same,GI50,SNB-75,> 100 µM (inactive)
same,GI50,CAKI-1,> 100 µM (inactive)
same,GI50,TK-10,> 100 µM (inactive)
same,GI50,HCT-116,> 100 µM (inactive)
same,GI50,K562,> 100 µM (inactive)
same,GI50,IGROV-1,> 100 µM (inactive)
same,GI50,A549,> 100 µM (inactive)
same,GI50,SN12C,> 100 µM (inactive)
same,GI50,SK-MEL-5,> 100 µM (inactive)
same,GI50,EKVX,> 100 µM (inactive)
same,GI50,HCC 2998,> 100 µM (inactive)
same,GI50,786-0,> 100 µM (inactive)
same,GI50,NCI-H522,> 100 µM (inactive)
same,GI50,KM12,> 100 µM (inactive)
